For orientation: ED50 means the midpoint of the dose-response relation.

Experimental findings from patent EP0463456A1, “Phosphorus-containing HMG-CoA reductase inhibitors, new intermediates and their use” (E.R. SQUIBB & SONS, INC., priority 1990, dated 1992) are described below.

The test has as its system cholesterol biosynthesis in rats. Nature of the test: In vivo effect on cholesterol biosynthesis in rats (14C-Acetate Model; plasma 14C-nonsaponifiable lipid). Conditions: dose suppressing cholesterol synthesis in vivo by 50 percent. Further details: species or system Male Sprague/Dawley rats. The protocol: SQ 34,346 in oral or IV dosage form was tested in vivo for its effect on cholesterol biosynthesis in rats (^14C-Acetate Model).
The following in vivo tests employed a rat model system to determine the in vivo cholesterol synthesis inhibitory activity of compounds which show cholesterol synthesis inhibition in whole cell systems (freshly isolated rat hepatocytes and cultured human skin fibroblasts), and which are potent inhibitors of HMG CoA reductase.
The method used for iv and po drug testing were adapted from a procedure originally described by Sandoz (U.S. Patent No. 4,613,610, Sept. 23, 1986, and Int'I Publication No. WO 86/00367, Derwent Nos. 86271640 and 8628274). […]
For iv testing, the salt forms of test compounds were routinely dissolved in saline and injected iv into the tail vein 5 minutes before ^14C-acetate injection. […] Cholesterol synthesis was measured by determining the level of ^14C-nonsaponifiable lipid present in one mL of plasma; the method used is a modification of the method described by Dugan, et al, (Dugan, R.E., L.L. Slakey, A.V. Briedis, and J. Porter, Arch. Biochem. Biophys., 152:21 (1972)). […] Samples were counted for both ^3H and ^14C in 10 mL Optiflour scintillation fluid using a Beckman LS3801 counter programed for double label counting. […]

As to “(S)-4-[[[4-(4-Fluorophenyl)-1,2-bis(1-methylethyl)-5-phenyl-1H-pyrrol-3-yl]-ethynyl]hydroxyphosphinyl]-3-hydroxybutanoic acid, dilithium salt [SQ 34,346]”, the 50% effective dose (ED50) reads like this: (i.v., injected into tail vein 5 minutes before 14C-acetate) 0.05 mg/kg; (p.o., given 30 minutes before 14C-acetate) 1.13 mg/kg.
